According to patent US20070185099A1, “Triazolopyrimidine compounds and their use for controlling pathogenic fungi” (priority 2004, published 2007):

System: Puccinia recondita
Assay: Curative activity against brown rust of wheat caused by Puccinia recondita
Type: in vivo
Conditions: 250 ppm active compound, wheat cultivar Kanzler, 7 days after treatment, untreated plants 80% infected
Experimental: The active compounds were prepared as a stock solution by mixing 25 mg of active compound with a mixture of acetone and/or DMSO and the emulsifier Uniperol® EL (wetting agent having an emulsifying and dispersing action based on ethoxylated alkylphenols) in a volume ratio of solvent/emulsifier of 99:1 to give a total volume of 10 ml, and the mixture was then diluted to 100 ml with water. This stock solution was diluted with the solvent/emulsifier/water mixture described to give the concentration of active compounds stated below.
Leaves of potted wheat seedlings of the cultivar “Kanzler” were inoculated with a spore suspension of brown rust (Puccinia recondita). The pots were then placed into a chamber with high atmospheric humidity (90 to 95%) and at 20-22° C. for 24 hours. During this time, the spores germinated and the germ tubes penetrated into the leaf tissue. The next day, the infected plants were sprayed to runoff point with an aqueous suspension having the concentration of active compounds stated below. The suspension or emulsion was prepared as described above. After the spray coating had dried on, the test plants were cultivated in a greenhouse at temperatures between 20 and 22° C. and at 65 to 70% relative atmospheric humidity for 7 days. The extent of the rust fungus development on the leaves was then determined.

SMILES | infection of treated plants (rust fungus development on leaves)
COC(=O)C(Nc1c(-c2c(F)cc(F)cc2F)c(Cl)nc2ncnn12)C(C)(C)C (racemic) [Example 61] | no infection
COC(=O)C(C(C)C)N(C)c1c(-c2c(F)cc(F)cc2F)c(Cl)nc2ncnn12 (centres unmarked) [Example 60] | no infection
